Measurements from ChEMBL document CHEMBL5126512, “Current status of carbazole hybrids as anticancer agents” (Eur J Med Chem, 2022).
One block for each molecule: values may come before it.

Columns and labels:
DU-145 [1] = assay: Antiproliferative activity against human DU-145 cells assessed as cell growth inhibition measured after 24 hrs by MTT assay; assay type: functional, cell-based; details: DU-145, 24 h
MDA-MB-231 [2] = assay: Antiproliferative activity against human MDA-MB-231 cells assessed as cell growth inhibition measured after 24 hrs by MTT assay; assay type: functional, cell-based; details: MDA-MB-231, 24 h
SK-OV-3 = assay: Antiproliferative activity against human SK-OV-3 cells assessed as cell growth inhibition measured after 24 hrs by MTT assay; assay type: functional, cell-based; details: SK-OV-3, 24 h
B16-F10 = assay: Antiproliferative activity against mouse B16-F10 cells assessed as cell growth inhibition measured after 24 hrs by MTT assay; assay type: functional, cell-based; details: B16-F10, 24 h
MCF7 [3] = assay: Antiproliferative activity against human MCF7 cells assessed as cell growth inhibition measured after 72 hrs by MTT assay; assay type: functional, cell-based; details: MCF7, 72 h
MDA-MB-231 [4] = assay: Antiproliferative activity against human MDA-MB-231 cells assessed as cell growth inhibition measured after 72 hrs by MTT assay; assay type: functional, cell-based; details: MDA-MB-231, 72 h
A549 [5] = assay: Anticancer activity against human A549 cells assessed as cell growth inhibition measured after 48 hrs by MTT assay; assay type: functional, cell-based; details: A549, 48 h
MCF7 [6] = assay: Anticancer activity against human MCF7 cells assessed as cell growth inhibition measured after 48 hrs by MTT assay; assay type: functional, cell-based; details: MCF7, 48 h
Jurkat = assay: Antiproliferative activity against human Jurkat cells assessed as cell growth inhibition measured after 48 hrs by MTT assay; assay type: functional, cell-based
HT-29 = assay: Antiproliferative activity against human HT-29 cells assessed as cell growth inhibition measured after 48 hrs by MTT assay; assay type: functional, cell-based; details: HT-29, 48 h
MDA-MB-231 [7] = assay: Antiproliferative activity against human MDA-MB-231 cells assessed as cell growth inhibition measured after 48 hrs by MTT assay; assay type: functional, cell-based; details: MDA-MB-231, 48 h
SW837 = assay: Antiproliferative activity against human SW837 cells assessed as cell growth inhibition measured after 48 hrs by MTT assay; assay type: functional, cell-based; details: SW837, 48 h
HCT-116 = assay: Antiproliferative activity against human HCT-116 cells assessed as cell growth inhibition measured after 48 hrs by MTT assay; assay type: functional, cell-based; details: HCT-116, 48 h
K562 = assay: Cytotoxicity activity against human K562 cells assessed as cell growth inhibition measured after 72 hrs by MTT assay; assay type: functional, cell-based; details: K562, 72 h
[8] = Cytotoxicity activity against African green monkey vero cells assessed as cell growth inhibition measured after 72 hrs by MTT assay; assay type: toxicity, cell-based, Chlorocebus sabaeus
[9] = Cytotoxicity activity against human PBMC cells assessed as cell growth inhibition measured after 72 hrs by MTT assay; assay type: toxicity, cell-based
ASPC1 = assay: Anticancer activity against human ASPC1 cells assessed as cell growth inhibition measured after 72 hrs by Cell-Titre Glo luminescent cell viability assay; assay type: functional, cell-based; details: ASPC1, 72 h
SW1990 = assay: Anticancer activity against human SW1990 cells assessed as cell growth inhibition measured after 72 hrs by Cell-Titre Glo luminescent cell viability assay; assay type: functional, cell-based; details: SW1990, 72 h
[10] = Cytotoxicity against human ARPE-19 cells assessed as cell growth inhibition measured after 72 by Cell-Titre Glo luminescent cell viability assay; assay type: toxicity, cell-based
[11] = Cytotoxicity against human MRC5 cells assessed as cell growth inhibition measured after 72 by Cell-Titre Glo luminescent cell viability assay; assay type: toxicity, cell-based
A498 = assay: Antiproliferative activity against human A498 cells assessed as cell growth inhibition measured after 72 hrs by SRB assay; assay type: functional, cell-based; details: A498, 72 h
A549 [12] = assay: Antiproliferative activity against human A549 cells assessed as cell growth inhibition measured after 72 hrs by SRB assay; assay type: functional, cell-based; details: A549, 72 h
[13] = Cytotoxicity against human NHDF cells assessed as cell growth inhibition measured after 72 hrs by SRB assay; assay type: toxicity, cell-based
Hep 3B2 = assay: Cytotoxicity against human Hep3B cells assessed as cell growth inhibition measured after 48 hrs by MTT assay; assay type: functional, cell-based
SMMC-7721 = assay: Cytotoxicity against human SMMC-7721 cells assessed as cell growth inhibition measured after 48 hrs by MTT assay; assay type: functional, cell-based; details: SMMC-7721, 48 h
HepG2 [14] = assay: Antitumor activity against human HepG2 xenografted in BALB/c nude mouse assessed as tumor growth inhibition at 50 mg/kg, iv administered every 2 days and measured upto 30 days relative to control; assay type: functional; details: read-out: TGI
PA-1 = assay: Antiproliferative activity against human PA-1 cells assessed as cell growth inhibition measured after 48 hrs by MTT assay; assay type: functional, cell-based; details: PA-1, 48 h
OVCAR-3 = assay: Antiproliferative activity against human OVCAR-3 cells assessed as cell growth inhibition measured after 48 hrs by MTT assay; assay type: functional, cell-based; details: OVCAR-3, 48 h
DU-145 [15] = assay: Antiproliferative activity against human DU-145 cells assessed as cell growth inhibition measured after 48 hrs by MTT assay; assay type: functional, cell-based; details: DU-145, 48 h
HeLa = assay: Antiproliferative activity against human HeLa cells assessed as cell growth inhibition measured after 48 hrs by MTT assay; assay type: functional, cell-based
HepG2 [16] = assay: Antiproliferative activity against human HepG2 cells assessed as cell growth inhibition measured after 48 hrs by MTT assay; assay type: functional, cell-based; details: HepG2, 48 h

IC50 (DU-145 [1]): 5.1 µM | IC50 (MDA-MB-231 [2]): 5.1 µM | IC50 (SK-OV-3): 5.1 µM | IC50 (B16-F10): 5.1 µM
SMILES: CNC1=C([N+](=O)[O-])C(c2cc(OC)c(OC)c(OC)c2)c2ccc3[nH]c4ccccc4c3c2O1 (configuration not stated)

IC50 (MCF7 [3]): 4.4 µM | IC50 (MDA-MB-231 [4]): 4.4 µM
SMILES: C[N+](C)(C)CCN1CCN(CCCCCCn2c3ccccc3c3cc(Cl)ccc32)CC1

IC50 (HT-29): 18 µM | IC50 (MDA-MB-231 [7]): 16 µM | IC50 (SW837): 16 µM | IC50 (HCT-116): 18 µM
SMILES: Oc1cc2[nH]c3ccccc3c2cc1CN1CCCCC1

IC50 (ASPC1): 3.42 µM | IC50 (SW1990): 22.4 µM
SMILES: CCCCn1c2ccccc2c2cc(/C=N/NC(=O)c3ccncc3)ccc21
IC50 [10]: 65.6 µM | IC50 [11]: 64.8 µM

IC50 (A549 [12]): 0.65 µM
SMILES: Cc1c2ccncc2c(C(=O)NCCN(C)C)c2c3cc(CO)ccc3n(C)c12
IC50 (A498): 0.78 µM | IC50 at 72 h [13]: 7.33 µM

The next lines start with the molecule.

SMILES: O=C1c2[nH]c3ccc(Cl)cc3c2CC[C@@]12[C@@H](c1ccc(Cl)cc1)C1CSCN1C21c2ccccc2-c2nc3ccccc3nc21 (some centres not stated)
IC50 (A549 [5]): 20 µM | IC50 (MCF7 [6]): 21 µM

SMILES: O=C(Cn1c2ccccc2c2c3oc(=O)cc(COC(=O)CCCc4ccc(N(CCCl)CCCl)cc4)c3ccc21)NCCC[P+](c1ccccc1)(c1ccccc1)c1ccccc1
IC50 (Jurkat): 20 µM

SMILES: Cc1c2ccncc2c(C)c2c1[nH]c1c(S(=O)(=O)O)cc(Br)cc12
IC50 (K562): 35 µM | IC50 at 72 h [8]: > 100 µM | IC50 at 72 h [9]: > 100 µM

SMILES: COc1cccc2c1C(=O)c1c(O)c3c(c(O)c1C2=O)C[C@@](O)(C(=O)CO)C[C@@H]3O[C@H]1C[C@H](N)[C@H](O)[C@H](C)O1 [DOXORUBICIN]
IC50 (Hep 3B2): 1.02 µM | IC50 (SMMC-7721): 1.02 µM

SMILES: COc1ccc(/C=C\c2cc(OC)c(OC)c(OC)c2)cc1OP(=O)(O)O [FOSBRETABULIN]
inhibition in vivo at 50 mg/kg (HepG2 [14]): 48.3%

SMILES: COc1ccc2[nH]c3c4c(c(C)cc3c2c1)OC(C)(C)C=C4 [KOENIMBINE]
IC50 (PA-1): 0.2 µM | IC50 (OVCAR-3): 0.2 µM | IC50 (DU-145 [15]): 0.2 µM | IC50 (HeLa): 0.2 µM | IC50 (HepG2 [16]): 0.2 µM | IC50 (HCT-116): 0.2 µM
